Experimental data from BindingDB's records for patent US20250313563 (The Broad Institute, 2025).
“And” between values parts separate entries of the source, which are not always exact repeats. Equal values may be shown once.

Key:
[1] = molecular target: Glycogen synthase kinase-3 alpha (Homo sapiens, UniProt P49840); assay: TR-FRET Assay
Method in brief: (§1)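 TR-FRET readout: streptavidin-d2 (40 nM in added detection mix) plus Tb-anti-pSer641 Ab (2 nM in mix). Steps were 30 min compound preincubation, kinase reaction, then EDTA stop.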

[2] = molecular target: Glycogen synthase kinase-3 beta (Homo sapiens, UniProt P49841); assay: TR-FRET Assay
Sequence of Glycogen synthase kinase-3 beta (P49841 whole entry): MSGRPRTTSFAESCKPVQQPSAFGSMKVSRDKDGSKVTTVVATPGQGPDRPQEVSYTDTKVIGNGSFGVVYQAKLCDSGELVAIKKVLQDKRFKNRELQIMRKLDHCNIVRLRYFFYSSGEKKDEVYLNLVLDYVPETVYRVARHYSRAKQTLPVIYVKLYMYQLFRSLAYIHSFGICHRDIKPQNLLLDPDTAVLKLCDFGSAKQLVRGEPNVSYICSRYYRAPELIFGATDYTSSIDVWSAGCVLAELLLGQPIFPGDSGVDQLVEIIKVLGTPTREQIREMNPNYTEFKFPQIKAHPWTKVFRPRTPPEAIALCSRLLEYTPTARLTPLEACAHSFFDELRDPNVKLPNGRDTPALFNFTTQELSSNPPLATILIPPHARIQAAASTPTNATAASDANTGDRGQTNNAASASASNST
Method in brief: as §1

Sequence of Glycogen synthase kinase-3 alpha (P49840 whole entry): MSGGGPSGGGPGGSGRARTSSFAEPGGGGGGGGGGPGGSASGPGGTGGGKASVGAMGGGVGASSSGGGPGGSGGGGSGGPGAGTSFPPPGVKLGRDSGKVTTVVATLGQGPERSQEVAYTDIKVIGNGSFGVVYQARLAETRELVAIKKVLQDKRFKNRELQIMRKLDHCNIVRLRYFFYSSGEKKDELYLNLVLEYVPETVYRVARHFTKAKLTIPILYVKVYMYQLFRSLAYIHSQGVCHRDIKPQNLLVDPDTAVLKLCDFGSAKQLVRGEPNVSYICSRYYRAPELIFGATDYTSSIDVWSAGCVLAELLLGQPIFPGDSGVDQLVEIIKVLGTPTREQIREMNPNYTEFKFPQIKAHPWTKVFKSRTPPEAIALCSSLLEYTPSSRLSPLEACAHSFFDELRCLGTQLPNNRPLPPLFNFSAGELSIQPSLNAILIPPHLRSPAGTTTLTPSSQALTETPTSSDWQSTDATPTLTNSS

SMILES	IC50 [1] [nM]	IC50 [2]
CC1CCC12C1=C(N=NC1)NC1=C2C(=O)CC(C)(C)C1 (centres undefined) [US20250313563, Compound 949640]	100 to 1000	1000 to 5000 nM
CC[C@@]1(c2cccc(-c3ccccc3)c2)C2=CN=NC2NC2=C1C(=O)CC(C)(C)C2 (some centres undefined) [US20250313563, Compound 801368]	< 100	100 to 1000 nM
CC[C@]1(c2cccc(-c3ccnn3C3CC3(F)F)c2)C2=CN=NC2NC2=C1C(=O)NC(C)(C)C2 (some centres undefined) [US20250313563, Compound 949518]	100 to 1000	> 5000 nM
CC[C@@]1(c2cccc(-c3cnn(C)c3C)c2)C2=C(CC(C)(C)CC2=O)NC2N=NC(C)=C21 (some centres undefined) [US20250313563, Compound 913024]	100 to 1000	1000 to 5000 nM
CC[C@]1(c2cccc(-c3cnn(C)c3)c2)C2=C(N=NC2)NC2=C1C(=O)C(C)(C)C2 [US20250313563, Compound 950819]	100 to 1000	1000 to 5000 nM
CC[C@@]1(c2cccc(-c3c(C#N)c(C)nn3C)c2)C2=CN=NC2NC2=C1C(=O)NC(C)(C)C2 (some centres undefined) [US20250313563, Compound 951844]	< 100	100 to 1000 nM
CC[C@]1(c2cccc(C(F)(F)F)c2)C2=CN=NC2NC2=C1C(=O)N(c1cscn1)CC2 (some centres undefined) [US20250313563, Compound 952629]	< 100	100 to 1000 nM
C[C@H]1CC(=O)C2=C(C1)NC1=C(CN=N1)C21CCOCC1 [US20250313563, Compound 912078]	100 to 1000	100 to 1000 nM
CC[C@]1(c2cccc(-c3cc(C)nnc3C)c2)C2=C(CC(C)(C)NC2=O)NC2N=NC(C(F)(F)F)=C21 (some centres undefined) [US20250313563, Compound 949917]	< 100	< 100 nM
CC[C@@]1(c2cccc(-c3cncn3C)c2)C2=CN=NC2NC2=C1C(=O)CC(C)(C)C2 (some centres undefined) [US20250313563, Compound 945605]	< 100	< 100 nM
CC1(C)CC(=O)C2=C(C1)NC1=C(CN=N1)C21CCC(C(=O)N2CCCC2)CC1 (centres undefined) [US20250313563, Compound 945394]	100 to 1000	1000 to 5000 nM
COc1cccc(S(=O)(=O)N2CC[C@@]3(C2)C2=C(N=NC2)NC2=C3C(=O)CC(C)(C)C2)c1 [US20250313563, Compound 951789]	100 to 1000	100 to 1000 nM
CCC1(c2cccc(-c3cnn(C)c3)c2)C2=C(CC(C)(C)NC2=O)NC2N=NC(C(F)(F)F)=C21 (centres undefined) [US20250313563, Compound 947405]	< 100	< 100 nM and 100 to 1000 nM
CC[C@@]1(c2cccc(-c3ccnn3C)c2)C2=CN=NC2NC2=C1C(=O)NC(C)(C)C2 (some centres undefined) [US20250313563, Compound 927390]	100 to 1000	> 5000 nM
CC[C@]1(c2cccc(-c3ccnc(C)c3C)c2)C2=C(CC(C)(C)NC2=O)NC2N=NC(C)=C21 (some centres undefined) [US20250313563, Compound 948183]	1000 to 5000	> 5000 nM
CC1(C)CC(=O)C2=C(C1)NC1=C(CN=N1)[C@]21CCO[C@@H](C(F)(F)F)C1 [US20250313563, Compound 884021]	100 to 1000	100 to 1000 nM
CC[C@]1(c2cccc(-c3cc(C)nnc3C)c2)C2=C(CC(C)(C)NC2=O)NC2N=NC(C)=C21 (some centres undefined) [US20250313563, Compound 949332]	1000 to 5000	> 5000 nM
CC[C@]1(c2cccc(C(F)(F)F)c2)C2=CN=NC2NC2=C1C(=O)N[C@H](c1ccccc1)C2 (some centres undefined) [US20250313563, Compound 945361]	< 100	100 to 1000 nM
CC[C@@]1(c2cccc(-c3c(C)nn(C)c3C)c2)C2=C(CC(C)(C)CC2=O)NC2N=NC(C)=C21 (some centres undefined) [US20250313563, Compound 913026]	100 to 1000	100 to 1000 nM
CC[C@@]1(c2cccc(S(=O)(=O)C(C)C)c2)C2=CN=NC2NC2=C1C(=O)NC(C)(C)C2 (some centres undefined) [US20250313563, Compound 947823]	100 to 1000	1000 to 5000 nM
C[C@]1(c2ccccc2)C2=C(N=NC2)NC2=C1C(=O)CC1(CCCC1)C2 [US20250313563, Compound 792338]	< 100	100 to 1000 nM
Cn1ccc(S(=O)(=O)N2CCC[C@]3(CC2)C2=CN=NC2NC2=C3C(=O)CC(C)(C)C2)n1 (some centres undefined) [US20250313563, Compound 932640]	< 100	< 100 nM
CC1(C)CC(=O)C2=C(NC3=C(CN=N3)C23CCN(S(=O)(=O)C2CC2)CC3)C1F (centres undefined) [US20250313563, Compound 950814]	< 100	< 100 nM
CC[C@]1(c2cccc(OC)c2)C2=C(CC(C)(C)CC2=O)NC2N=NC(C(=O)OC)=C21 (some centres undefined) [US20250313563, Compound 901479]	< 100	< 100 nM
CCC1(c2cccc(S(=O)(=O)C3CCOC3)c2)C2=CN=NC2NC2=C1C(=O)CC(C)(C)C2 (centres undefined) [US20250313563, Compound 944018]	< 100	< 100 nM
CC1(C)CC(=O)C2=C(C1)NC1=C(CN=N1)[C@@]21CO[C@@H](C2CC2)C1 [US20250313563, Compound 913442]	100 to 1000	100 to 1000 nM
CC[C@@]1(c2cccc(C(F)(F)F)c2)C2=C(CC(C)(C)CC2=O)NC2N=NC(C)=C21 (some centres undefined) [US20250313563, Compound 810367]	< 100	< 100 nM
